Measured values published in patent US6949529B2, “Compositions containing lysophosphotidic acids which inhibit apoptosis and uses thereof” (Sky High, LLC, priority 1997, dated 2005).

Experiments:
[1] = tested on: C3H/10T½ cells; experiment: C3H/10T½ serum deprivation anti-apoptotic activity assay; format: cell-based; details: for Maximum effect relative to 18:1 LPA: LPA alone, 24 h serum deprivation, 18:1 LPA = 100%; for activity compared with lysophosphatidic acid: summary of Table 3
From the text: In order to determine the apoptotic activity of the claimed invention, the following method of analysis was used. The-cell assay is described in detail in U.S. Pat. Nos. 5,637,486, 5,620,888, and 5,681,703, and Tomei et al. (1993) Proc Natl. Acad. Sci. 90:853-857. Briefly, mouse fibroblast C3H/10T½ cells (clone 8) were obtained from ATCC (Rockville, Md.) and were maintained in exponential growth phase in which the cell cycle is randomly distributed and no cells are arrested in G0, and in quiescence. Exponential growth phase was assured by seeding at 2000 cells per 1 ml (5 ml for a 60 mm culture plate) five days prior to the beginning of the experiment. Assays were performed on cells only up to passage 15. At T=0, cultures were transferred to serum-free medium, as an apoptosis stimulus, and seed extracts were added. Controls included 10-7 and 5×10^-8 M 12-O-tetradecanoyl phorbol-13-acetate (TPA) to ensure the responsiveness of the cell culture. The samples were added to serum free medium and sterile filtered prior to addition to the cultures. Assays were performed in triplicate or quadruplicate. Analyses of the cell responses were made between 18 and 28 hours of serum deprivation. Two assays were performed on each cell culture plate consisting of differential cell counts.
1. All non-adherent or loosely adherent cells were removed from the culture dish and counted by appropriate techniques, typically counting by electronic particle counting instrument. These are the apoptotic cells, the serum deprived released cells (SDR), released by the action of cultivation in serum-free medium. Approximately 95% of these released cells are apoptotic as shown by both ultrastructure analysis and DNA fragmentation analysis.
2. The remaining adherent cells (ADH) were exposed to a buffered, typically pH 7.3, balanced salt solution such as Hanks Balanced Salt Solution without calcium and magnesium salts containing 0.05% trypsin and 0.53 mM ethylene diaminetetraacetic acid (EDTA). Each culture was incubated at either room temperature or 37° C. on a rocking platform to ensure uniform distribution of the trypsin reagent over the culture surface. After a standardized period of time, typically 10 minutes, the released cells were removed from each culture dish and measured by the same means as described above, typically electronic particle counting. This ADH cell count is comprised of both trypsin resistant and trypsin sensitive cells as described in U.S. Pat. Nos. 5,637,486, 5,620,888, and 5,681,703.
Anti-apoptotic activity is expressed in the following examples as the calculated concentration of material (μg/ml of media) required to save 50% of the cells released on serum free treatment.
The ability of 18:1-LPA and other LPAs to protect serum-starved cells from apoptotic death was measured using the C3H/10T½ cell assay, performed as described in Example 2. The effect of various compounds on the ability of lysophosphatidic acid to protect serum-starved cells from apoptotic death was also measured. Log phase cells were seeded in 60 mm Petri dishes at 175-350 cells per cm2 and maintained in Basal Medium Eagle (BME) supplemented with 10% Heat Inactivated Fetal Bovine Serum (HIFBS). On day 3 the cells were given fresh media. Treatment began on day 5 when the media containing serum was removed and replaced with the LPA mixture to be tested. After 24 hours of treatment, day 6, serum deprived released (SDR) cells (the apoptotic cell population) and adherent (ADH) cells were separated and counted using an electronic cell counter Coulter Corporation, Hialea, Fla.). SDR cells were counted with the lower threshold setting at 6.3 μm and were defined as the apoptotic cells dying in response to cultivation in serum free media. Approximately 95% of the SDR cells were confirmed to be apoptotic as previously shown by size, ultrastructure and DNA fragmentation analysis. […]

[2] = Electrophoresis radiobinding assay on native polyacrylamide gel; format: binding; details: 1 nM labeled 18:1-LPA/45 μg protein, 37° C., 60 minutes
Protocol: Electrophoresis radiobinding assay. Proteins were analyzed on native polyacrylamide gels following incubation with ^3H-labeled 18:1-LPA. ^3H-labeled lysophosphatidic acid (1-oleyl) (DuPont NEN Products, Boston, Mass.) was added to tested proteins at 1 nM labeled 18:1-LPA/45 μg protein. Mixtures were incubated in a bicarbonate buffered saline/EDTA solution at 37° C. for 60 minutes. Incubated samples were mixed with native gel sample buffer (312 mM Tris pH 6.8, 50% glycerol, 0.05% bromophenol blue) and loaded entirely onto an 8% discontinuous native polyacrylamide gel. Following electrophoresis, proteins were fixed into the gels using an aqueous solution consisting of glacial acetic acid, 10% (vol/vol) and methanol 30% (vol./vol.) solution. Fixed gels were then incubated for 60 minutes in autoradiography enhancer (EN^3HANCE, DuPont NEN Products, Boston, Mass.), and dried onto 3M chromatography paper (Whatman, Clifton, N.J.) and exposed to autoradiography film (X-Omat, Kodak, Rochester, N.Y.) for 72 hours at −80° C.

[3] = tested on: C3H/10T½ cells; experiment: Effect of proteins on anti-apoptotic activity of soy LPA, C3H/10T½ cell assay; format: cell-based; details: for Protein + 10 μg/mL Soy LPA, percent cells saved from apoptosis: 1:10 soy-LPA to protein (weight:weight), 24 h serum deprivation; for enhancement of the anti-apoptotic activity of LPA: protein added together with soy-LPA
Protocol: Soy derived LPA (soy-LPA) (Avanti® Polar Lipids, Inc., Alabaster, Ala.) was stored in an organic solution and was dried immediately prior to assay using a Speed Vac (Savant Instruments, Hicksville, N.Y.). Tested proteins were resuspended at 10 mg/mL in a bicarbonate buffered saline/EDTA solution (50 mM NH4HCO3, 104 mM NaCl, 250 μM EDTA) prior to being added to dried soy-LPA at a 1:10 soy-LPA to protein (weight:weight) ratio. The mixture was then sonicated for 5 minutes using a high power 80 Watt sonication bath (Laboratory Supplies Co., Hicksville, N.Y.). Following sonication, concentrated LPA/protein mixtures were left standing for 15 minutes at room temperature prior to dilution in cell culture assay media.
The effect of various proteins on the ability of LPA to protect serum-starved cells from apoptotic death was measured using the C3H/10T½ cell assay, performed as described in Example 2, above. Log phase cells were seeded in 60 mm Petri dishes at 175-350 cells per cm^2 and maintained in Basal Medium Eagle (BME) supplemented with 10% fetal calf serum (Hyclone, Logan, Utah). At time zero, serum containing media was replaced with sterile filtered BME containing the LPA/protein mixture to be tested. After 24 hours of treatment, serum deprived release (SDR) cells (the apoptotic cell population) and adherent (ADH) cells were separated and counted using an electronic cell counter (Coulter Corporation, Hialea, Fla.). SDR cells were counted with the lower threshold setting at 6.3 μm and were defined as the apoptotic cells dying in response to cultivation in serum-free-media. Approximately 95% of the SDR cells are confirmed to be apoptotic as previously shown by size, ultrastructure and DNA fragmentation analysis. Adherent cells were removed by treatment with a Hanks' balanced salt solution containing 0.05% trypsin and 0.53 mM EDTA and were counted with the lower threshold setting at 11.01 μm. All samples were tested in triplicate and serum-deprived controls (BME only) were assayed at both the beginning and end of each experiment.
The effects of various proteins alone or in combination with LPA are expressed as percent cells saved from apoptosis. When C3H10T½ cells were treated with 10 μg/mL soy LPA without protein, 8.0% of the cells were saved. The degree of protection from apoptosis afforded by protein alone, added to the medium at a concentration of 0.1% (wt/vol.), varied from 0.9% to 27.7% of cells saved from apoptosis. An unusually high percentage of cells were protected from serum-starvation-induced apoptosis by casein. This value may be artificially high, as casein preparations have been known to contain growth factors, including insulin-like growth factors (IGF) IGF1 and IGF2. IGF2 is a mitogen that can mask the serum deprivation-induced apoptotic response in these cells.

[4] = Size shift assay on Superdex S75 column; format: binding; details: soy LPA with 0.5 μCi ^3H-labeled 18:1-LPA, with test protein
Protocol: Size shift assay. Size analysis of LPA both with and without protein was performed using a Superdex® S75 column (Pharmacia Biotech, Uppsala, Sweden). Soy LPA was combined in a chloroform solution with 0.5 μCi ^3H-labeled 18:1-LPA (DuPont NEN Products, Boston, Mass.), dried under vacuum and resuspended by sonication in a buffered solution (50 mM ammonium bicarbonate, 154 mM sodium chloride, pH 8.0) in the presence or absence of test protein. The ammonium bicarbonate/sodium chloride solution was used as the mobile phase at a flow rate of 1 ml/min. One-minute fractions were collected for 30 minutes following sample injection. Fractions were counted in scintillant solution using a liquid scintillation counter (Beckman Instruments, Irvine, Calif.). Calibration was performed using a standard solution containing purified proteins (BioRad, Hercules, Calif.).

[5] = compounds exhibiting toxicity, Table 3 column Concentration for Max Effect

For `CCCCCCCCCCCCCCOCC(O)COP(=O)(OC)OC` (racemic) [Compound 3, Dimethyl 3-O-tetradecyl-rac-glycero-1-phosphate], the “Maximum effect relative to 18:1 LPA” value [1] was “Toxic” and the “lowest concentration at which cytotoxic effects were observed” value (from here on “lowest concentration”) [1, 5] was 30 µM.

For `CCCCCCCCCCCCCCOCC(O)COP(=O)(O)O` (racemic) [Compound 4, 3-O-Tetradecyl-rac-glycero-1-phosphate], the “Maximum effect relative to 18:1 LPA” value [1] was “Toxic” and the “lowest concentration” value ([1]; mouse, 24 h) was 10 µM.

In the case of `CCCCCCCC/C=C\CCCCCCCC(=O)OCC(COP(O)(O)=S)OC` (racemic) [Compound 48, 3-O-Oleoyl-2-O-methyl-rac-glycero-1-thiophosphate], the “activity compared with lysophosphatidic acid” value [1] is reported as “significantly higher than lysophosphatidic acid”.

With `CCCCCCCC/C=C\CCCCCCCCOCC(COP(O)(O)=S)OC` (racemic) [Compound 66, 3-O-Oleyl-2-O-methyl-rac-glycero-1-thiophosphate] the “activity compared with lysophosphatidic acid” value [1] was “significantly higher than lysophosphatidic acid”.

For `CCCCCCCC/C=C\CCCCCCCCOC(=O)C(COP(O)(O)=S)OC` (racemic) [Compound 78, Oleyl 1-thiophosphoryl-2-O-methyl-rac-glycerate], the “activity compared with lysophosphatidic acid” value [1] was “significantly higher than lysophosphatidic acid”.

For `CCCCCCCCCCCCCCOCC1CO1` (stereo not shown) [Compound 8, 1-O-Tetradecyl-glycidol], the “Maximum effect relative to 18:1 LPA” value [1] was “Toxic” and the “lowest concentration” value [1, 5] was 30 µM.

In the case of `CCCCCCCC/C=C\CCCCCCCC(=O)NCCOP(=O)(OC)OC` [Compound 59, Dimethyl 2-amino-2-N-oleoyl-ethyl phosphate], the “Maximum effect relative to 18:1 LPA” value [1] is reported as “Toxic” and the “lowest concentration” value [1, 5] is reported as 30 µM.

For Acyl Carrier Protein: source E. coli, the “Detectable Acrylamide Gel ^3H LPA Binding (+/−)” value [2] was “did not yield detectable bands” and the “Protein + 10 μg/mL Soy LPA, percent cells saved from apoptosis” value [3] was 36.2%.

With “Albumin (Fatty Acid Depleted): fatty acid depleted (FAD) bovine serum albumin (BSA)” the “Detectable Acrylamide Gel ^3H LPA Binding (+/−)” value [2] was “bind to 18:1-LPA”, the “Protein + 10 μg/mL Soy LPA, percent cells saved from apoptosis” value [3] was 58.7% and the “3H-LPA Size Shift Analysis (+/−)” value [4] was “most of the LPA was bound to BSA”.

With Casein the “Protein + 10 μg/mL Soy LPA, percent cells saved from apoptosis” value [3] was 84.3%.

With Cytochrome C: source bovine heart the “Protein + 10 μg/mL Soy LPA, percent cells saved from apoptosis” value [3] was 54.6% and the “3H-LPA Size Shift Analysis (+/−)” value [4] was “LPA does not bind to this protein”.

For “Dimethyl 3-amino-3-N-oleoyl-propyl phosphate [Compound 53]”, the “Maximum effect relative to 18:1 LPA” value [1] was “Toxic” and the “lowest concentration” value [1, 5] was 100 µM.

In the case of Myelin Basic Protein, the “Protein + 10 μg/mL Soy LPA, percent cells saved from apoptosis” value [3] is reported as 17.0% and the “enhancement of the anti-apoptotic activity of LPA” value [3] is reported as “did not enhance”.

For “Phosphatidylserine [Phosphatidylserine (PS), reference compound]”, the “toxicity to serum-deprived cells” value ([1]; PS alone (FIG. 2)) was “slightly toxic”.

B1: Ovalbumin: source chicken egg (protein, UniProt P01012 2-386, looked up)
Ovalbumin: GSIGAASMEFCFDVFKELKVHHANENIFYCPIAIMSALAMVYLGAKDSTRTQINKVVRFDKLPGFGDSIEAQCGTSVNVHSSLRDILNQITKPNDVYSFSLASRLYAEERYPILPEYLQCVKELYRGGLEPINFQTAADQARELINSWVESQTNGIIRNVLQPSSVDSQTAMVLVNAIVFKGLWEKAFKDEDTQAMPFRVTEQESKPVQMMYQIGLFRVASMASEKMKILELPFASGTMSMLVLLPDEVSGLEQLESIINFEKLTEWTSSNVMEERKIKVYLPRMKMEEKYNLTSVLMAMGITDVFSSSANLSGISSAESLKISQAVHAAHAEINEAGREVVGSAEAGVDAASVSEEFRADHPFLFCIKHIATNAVLFFGRCVSP
For B1, the “Detectable Acrylamide Gel ^3H LPA Binding (+/−)” value [2] was “detectable band”, the “Protein + 10 μg/mL Soy LPA, percent cells saved from apoptosis” value [3] was 15.1% and the “enhancement of the anti-apoptotic activity of LPA” value [3] was “did not enhance”.

B2: Myoglobin: source horse heart (protein, UniProt P68082 2-154, looked up)
Myoglobin: GLSDGEWQQVLNVWGKVEADIAGHGQEVLIRLFTGHPETLEKFDKFKHLKTEAEMKASEDLKKHGTVVLTALGGILKKKGHHEAELKPLAQSHATKHKIPIKYLEFISDAIIHVLHSKHPGDFGADAQGAMTKALELFRNDIAAKYKELGFQG
For B2, the “Protein + 10 μg/mL Soy LPA, percent cells saved from apoptosis” value [3] was 27.8%.
